# According to US20190053489A1, “ANTIMICROBIAL COMPOSITION” (NATIONAL UNIVERSITY CORPORATION TOKYO MEDICAL AND DENTAL …, priority 2016, published 2019):
# Legend:
# [1] = test system: MRSA; conditions: reported by AOKI and KASHIWAGI; cited from earlier work
# [2] = test system: MRSA; assay: Observation of morphological change in MRSA by electron microscope; assay type: cell-based, Methicillin-Resistant Staphylococcus Aureus (MRSA); conditions: complex 0.1% by mass, lysozyme 0.05%, chitosan 0.05%, mixture each 0.05%; FIG. 16
# Experimental: First, the morphological change in MRSA was observed by using a scanning electron microscope. This observation with a scanning electron microscope was carried out as follows: osmium coating (4 nm) was performed as the conductive treatment, and a low-acceleration ultra-high resolution scanning electron microscope (SU 9000 manufactured by Hitachi High-Technologies Corporation (accelerating voltage: 1 kV)) was used. In addition, the samples were MRSA added with physiological saline and MRSA added with a lysozyme-chitosan complex with a concentration of 0.2% by mass.
# (§1) Next, the morphological change in MRSA was observed by using a transmission electron microscope. This observation with a transmission electron microscope was carried out as follows: the sample was sliced in 50 nm with a diamond knife as the pretreatment and was stained with uranium acetate and lead citrate, and a transmission electron microscope (JEM-1400 manufactured by JEOL Ltd.) was used. In addition, the samples were MRSA added with physiological saline and MRSA added with a lysozyme-chitosan complex with a concentration of 0.2% by mass.
# (§2) Observation was carried out with a scanning electron microscope for the morphological changes in MRSA and pseudomonas aeruginosa treated with the lysozyme-chitosan complex, lysozyme alone, chitosan alone, and the mixture of lysozyme and chitosan (treatment time: 2 hours). This observation with a scanning electron microscope was carried out in the same manner as Example 8 described above: osmium coating (4 nm) was performed as the conductive treatment, and a low-acceleration ultra-high resolution scanning electron microscope (SU 9000 manufactured by Hitachi High-Technologies Corporation (accelerating voltage: 1 kV)) was used. In addition, the samples were MRSA or pseudomonas aeruginosa added with physiological saline, a lysozyme-chitosan complex with a concentration of 0.1% by mass, lysozyme of 0.05% by mass, chitosan of 0.05% by mass, and a mixture of lysozyme and chitosan, each with 0.05% by mass.
# [3] = test system: Micrococcus luteus bacteria; assay: Heat resistance evaluation by bacteriolytic test; assay type: physicochemical; conditions: 80° C. for 2 hours; ΔOD at 10 minutes with vs without heating; complex 5%, lysozyme 2.5% aqueous solution; FIG. 6(D)
# Experimental: This test is a bacteriolytic test using Micrococcus luteus bacteria being lysozyme-sensitive bacteria. Note that the bacteriolytic activity is an activity specific to lysozyme. Lysozyme is a protein relatively stable against heat. However, it is known that this activity generally decreases considerably for lysozyme heated at 80° C. for 30 minutes.
# This test employed an aqueous solution of the lysozyme-chitosan complex with a concentration of 5%, an aqueous solution of lysozyme with a concentration of 2.5%, and an aqueous solution of the mixture of lysozyme and chitosan with a concentration of […]. In addition, Micrococcus luteus bacteria manufactured by Wako Pure Chemical Industries, Ltd. were used as the use bacteria.
# First, 1 g of Micrococcus luteus bacteria was weighed on the day before the test, added to 100 ml of physiological saline, and stirred overnight at 4° C. […]
# In an optical density meter, 2800 μl of the test microbial solution was set to record OD (0-1) immediately before the addition of the sample. […] Since OD increased here, the highest value OD (0-2) was recorded.
# Timer measurement was started after the addition of the sample to record OD at the time of 2, 4, 6, 8, and 10 minutes passed. Each test was carried out twice, and the average was calculated.
# With OD for (0-2) being OD at the time of the start, Δoptical density (AOD) at each point was calculated. […]
# [4] = test system: MRSA IID 1677; assay: Proliferation suppression against MRSA in a diluted medium (OD600); assay type: cell-based, Methicillin-Resistant Staphylococcus Aureus (MRSA); conditions: diluted 1/2.5 LB medium, 37° C., OD 600 nm; complex 0.001%, lysozyme, chitosan and each of mixture 0.0005%; FIG. 1
# Experimental: This test employed MRSA IID 1677, and this microbe strain was cultured in a normal broth medium at 37° C. for 20 hours. The cultured microbial solution was collected by centrifugation (3000 rpm, 10 minutes), suspended with sterilized water, and then diluted with sterilized water so that the optical density would satisfy OD600=1.0. The resultant was diluted 2000 times (corresponding to 10^6 CFU/ml) to prepare a reaction microbial solution.
# Each of the LB test medium samples was added with 100 μl of reaction microbial solution and was shake cultured under the condition of 37° C. for 48 hours. Here, the LB test medium samples were prepared using 10 ml of 1/2.5 LB medium added with
# (1) 10 ml of sterilized water, (2) 10 ml of the lysozyme-chitosan complex with a concentration of 0.002% (the concentration after addition was 0.001%), (3) 10 ml of lysozyme alone with a concentration of 0.001% (the concentration after addition was 0.0005%), (4) 10 ml of chitosan alone with a concentration of 0.001% (the concentration after addition was 0.0005%), and (5) 10 ml of the mixture of lysozyme and chitosan with a concentration of 0.001% (the concentration of each after addition was 0.0005%).
# After that, 3 ml was extracted at time intervals (0, 1, and 2 days), and the optical density was measured at an absorption wavelength of 600 nm. […]
# [5] = test system: pseudomonas aeruginosa; assay: Observation of morphological change in pseudomonas aeruginosa by electron microscope; assay type: cell-based; conditions: complex 0.1% by mass, lysozyme 0.05%, chitosan 0.05%, mixture each 0.05%; FIG. 17
# Experimental: as §1
# Note that the morphological change in the case of adding the lysozyme-chitosan complex to pseudomonas aeruginosa was also observed using a transmission electron microscope in the same manner as above. […] In other words, the lysozyme-chitosan complex also has a resistant microbe inactivation effect for pseudomonas aeruginosa.
# as §2
# [6] = test system: MRSA IID 1677; assay: Proliferation suppression against MRSA in a standard medium (colony count method); assay type: cell-based, Methicillin-Resistant Staphylococcus Aureus (MRSA); conditions: standard TSB medium with phosphate buffer pH 7.0; complex 0.2%, lysozyme, chitosan, each of mixture 0.1%; FIG. 7
# Experimental: This test employed MRSA IID 1677, and this microbe strain was inoculated in 20 ml of a normal broth medium (manufactured by Eiken Chemical Co., Ltd., ‘Eiken’) for overnight shake culture at 37° C. The cultured microbial solution was collected by centrifugation (3000 rpm, 10 minutes), suspended with sterilized water, and then diluted with sterilized water so that the optical density would satisfy OD600=1.0. The resultant was diluted 2000 times (corresponding to 10^6 CFU/ml) to prepare a reaction microbial solution.
# Here, the TSB test medium samples were prepared using 10 ml of TSB medium (BD BBL™) added with 200 μl of 1 M phosphate buffer (pH 7.0), followed by further addition of
# (1) 10 ml of sterilized water, ([…]), (3) 10 ml of lysozyme alone with a concentration of 0.2% (the concentration after addition was 0.1%), (4) 10 ml of chitosan alone with a concentration of 0.2% (the concentration after addition was 0.1%), and (5) 10 ml of the mixture of lysozyme and chitosan with a concentration of 0.2% (the concentration of each after addition was 0.1%).
# After that, 100 μl was extracted and seeded on the MH agar medium, and the number of colonies produced was observed (colony count method). […] Note that the results of FIG. 7 are each the average value of the values obtained by carrying out the colony count method three times.
# Note that the results of FIG. 8 are each the average value obtained with two replicate samples.
Compound,generation at which a resistant microbe is observed to produce [1],"morphological change in MRSA, scanning electron microscope, treatment time 2 hours [2]",residual activity (bacteriolytic) after heating treatment [3] [%],proliferation suppression effect against MRSA for 48 hours [4],"morphological change in pseudomonas aeruginosa, scanning electron microscope, treatment time 2 hours [5]",proliferation suppression effect against MRSA (ratio of colonies produced 6 hours later to control) [6]
CN(C)c1ccc(O)c2c1C[C@H]1C[C@H]3[C@H](N(C)C)C(O)=C(C(N)=O)C(=O)[C@@]3(O)C(O)=C1C2=O [minomycin],sixth generation,–,–,–,–,–
"lysozyme [lysozyme alone, reference compound]",–,no significant morphological change was observed,73.3,observed to some extent,no significant morphological change was observed,almost no proliferation suppression effect
gentamicin,third generation,–,–,–,–,–
